Experimental data published in patent EP2057185B1, “POLYMYXIN DERIVATIVES AND USES THEREOF” (Northern Antibiotics Oy, priority 2006, dated 2008).
Bridge positions count the residues as written; N and C are the ends. Square brackets hold non-standard residues; d marks the D form. Peptide text beside a SMILES is read from it. * marks the point of attachment. Octanoyl = CCCCCCCC(=O)*; Dab = NCC[C@H](N)C(=O)O; Abu = CC[C@H](N)C(=O)O

Tests used:
[1] = test system: E. coli IH3080; assay: Growth inhibition around wells on LB agar plates; format: cell-based, Escherichia coli; settings: 18 h at 37°C; for Antibacterial activity at 4 µg: growth inhibition area around a well containing 4 µg of compound; for Antibacterial activity at 10 µg: growth inhibition area around a well containing 10 µg of compound
Method: Peptides synthesized in Example 1, all carrying at least two (2) but not more than three (3) positive charges, were studied for their ability to inhibit the growth of E. coli. This was tested employing LB agar (LB Agar Lennox, Difco, BD, Sparks, MD, U.S.A) plates. The indicator organism E. coli IH3080 (K1:O18) was an encapsulated strain originally isolated from a neonate suffering from meningitis (Vaara et al. 1984) and obtained from National Public Health Institute, Helsinki, Finland.
(§1) From an overnight-grown culture of IH3080 on LB agar, a suspension of approx. 10^8 cells/ml was prepared in 0.9% NaCl. Aliquots of this suspension were then pipetted on the agar plates and the plates were gently shaken to spread the suspension evenly on the entire surface of the plate. Thereafter, the unabsorbed part of the suspension was removed by using a Pasteur pipette. After the surface had dried, small wells (diameter, 2 mm) were drilled on the plates (five wells per plate) by using a sterile sharp-edged narrow metal tube, single-use pipette tip, and vacuum suction. […] Controls included 0.9% NaCl solution without the compound to be tested. The plates were then incubated for 18 h at 37°C whereafter the diameters of growth inhibition zones around each well were measured; the diameter of the well itself was […]. Finally, the diameters were converted to surface areas of growth inhibition (in square mm).

[2] = test system: A. baumannii ATCC 19606; assay: Growth inhibition around wells on LB agar plates; format: cell-based, Acinetobacter baumannii; settings: for Antibacterial activity 4 µg: growth inhibition area around a well containing 4 µg; for Antibacterial activity 10 µg: growth inhibition area around a well containing 10 µg
Method: (§2) From an overnight-grown culture of IH3080 on LB agar, a suspension of approx. 10^8 cells/ml was prepared in 0.9% NaCl. Aliquots of this suspension were then pipetted on the agar plates and the plates were gently shaken to spread the suspension evenly on the entire surface of the plate. Thereafter, the unabsorbed part of the suspension was removed by using a Pasteur pipette. After the surface had dried, small wells (diameter, 2 mm) were drilled on the plates (five wells per plate) by using a sterile sharp-edged narrow metal tube, single-use pipette tip, and vacuum suction. Samples (4 µl and 10 µl) of the peptide solution in 0.9% NaCl (at concentrations of 1 µg/ml and 0.1 µg/ml) were then pipetted to the wells and the sample fluids were allowed to absorb. Controls included 0.9% NaCl solution without the compound to be tested. The plates were then incubated for 18 h at 37°C whereafter the diameters of growth inhibition zones around each well were measured; the diameter of the well itself was […]. Finally, the diameters were converted to surface areas of growth inhibition (in square mm).
(§3) Direct antibacterial activity of twelve NAB compounds against Acinetobacter baumannii ATCC 19606 and Pseudomonas aeruginosa ATCC 27853 was tested by using the susceptibility determination method described in Example 2. Five compounds (NAB7062, NAB734, NAB737, NAB739, and NAB740) had notable activity against A. baumannii. […] The antibacterial activity of NAB739 and NAB740 were as strong as or even stronger than that of polymyxin B.

[3] = test system: Ps. aeruginosa ATCC 27853; assay: Growth inhibition around wells on LB agar plates; format: cell-based, Pseudomonas aeruginosa; settings: for Antibacterial activity 4 µg: growth inhibition area around a well containing 4 µg; for Antibacterial activity 10 µg: growth inhibition area around a well containing 10 µg
Method: as §2, §3

[4] = test system: E. coli IH3080; assay: Growth inhibition around wells on LB plates containing rifampin (sensitization); format: cell-based, Escherichia coli; settings: well containing 4 µg of compound; for Antibacterial activity in the presence of rifampin concn (µg/ml) of 0: plates with no rifampin; for Antibacterial activity in the presence of rifampin concn (µg/ml) of 0.1: rifampin 0.1 µg/ml; for Antibacterial activity in the presence of rifampin concn (µg/ml) of 1.0: rifampin 1.0 µg/ml
Method: as §1, with “mm). […] Louis, MO, U.S.A).” for “mm).”

[5] = test system: E. cloacae ATCC23355
Method: (§4) MICs were determined by using E-strips (Biodisk Ltd., Solna, Sweden) according to the manufacturer's instructions.
(§5) The strains originated from ATCC (11 strains), CCUG (11 strains), and NCTC (The National Collection of Type Cultures, Colindale, U.K.; 2 strains). Eight strains (the F-strains) were purchased from Mobidiag Ltd., Helsinki, Finland.

[6] = test system: E. coli IH3080
Method: as §4, §5

[7] = test system: K. pneumoniae ATCC13883
Method: as §4, §5

[8] = test system: carbapenem-resistant strains (F263, F264); assay: E-strip MIC of carbapenems, summary over resistant strains; format: cell-based, Acinetobacter baumannii; settings: NAB7061 4 µg/ml
Method: as §4

[9] = Two-week intravenous toxicity study in young rats; format: in vivo; settings: for rise of blood urea nitrogen (BUN) over control or low dose group: 16 mg/kg/day
Method: Toxicity in young rats (weighing approx. 150 g in the beginning of the study) was determined by administering doses (1, 2, 4, 8, 16, and 32 mg/kg per day) of NAB7061 as well as the control compound polymyxin B intravenously twice (2) a day for two weeks. A group of ten (10) rats was studied for each dosis regimen. Clinical observations were made daily, the body weight measured twice weekly, and the food consumption twice weekly. In the end of week 2, all animals were sacrificed.
Histopathology of kidneys was performed for each animals and histopathology of all tissues was performed in three high-dose groups receiving NAB7061.

[10] = E. cloacae ATCC23355, 4 µg/ml of NAB 7061
[11] = E. coli IH3080, 4 µg/ml of NAB 7061
[12] = K. pneumoniae ATCC1 3883, 4 µg/ml of NAB 7061

Molecule: CCCCCCCC(=O)N[C@H](C(=O)N[C@@H](CC)C(=O)N[C@H]1CCNC(=O)[C@H]([C@@H](C)O)NC(=O)[C@H](CCN)NC(=O)[C@H](CCN)NC(=O)[C@H](CC(C)C)NC(=O)[C@@H](Cc2ccccc2)NC(=O)[C@H](CCN)NC1=O)[C@@H](C)O [NAB 7061, OA-Thr-Abu-cy[Dab-Dab-DPhe-Leu-Dab-Dab-Thr-]] (Octanoyl-T[Abu][Dab][Dab][dF]L[Dab][Dab]T; lactam 3-C)
- Antibacterial activity at 4 µg [1]: 0 square millimeters
- Antibacterial activity at 10 µg [1]: 50 square millimeters
- Antibacterial activity 4 µg [2]: 0 square millimeters
- Antibacterial activity 10 µg [2]: 0 square millimeters
- Antibacterial activity 4 µg [3]: 0 square millimeters
- Antibacterial activity 10 µg [3]: 0 square millimeters
- Antibacterial activity in the presence of rifampin concn (µg/ml) of 0 [4]: 0 square millimeters
- Antibacterial activity in the presence of rifampin concn (µg/ml) of 1.0 [4]: 155 square millimeters
- MIC (µg/ml) of clarithromycin in the presence of 4 µg/ml of NAB 7061 ([5]; E. cloacae ATCC23355): 0,25 - 0,75 µg/ml
- MIC (µg/ml) of rifampin in the presence of 4 µg/ml of NAB 7061 ([5]; E. cloacae ATCC23355): 0,008 - 0,016 µg/ml
- sensitization factor to both carbapenems (imipenem, meropenem) [8]: ≥ 4
- rise of blood urea nitrogen (BUN) over control or low dose group ([9]; rat, in vivo): no such a rise was found
- general pathology and histopathology of organs and kidneys ([9]; rat, in vivo, iv): No NAB7061-related pathological findings
- lowest dose that negatively influenced the body weight gain ([9]; rat, in vivo, iv): 8 mg/kg
- rise of blood urea nitrogen (BUN) ([9]; rats, 32 mg/kg per day, end of the study): 7%
- survival ([9]; rats, 1 to 32 mg/kg per day intravenously, two weeks): all rats receiving NAB7061 remained alive throughout the study

Molecule: Polymyxin B
- Antibacterial activity at 4 µg [1]: 79 square millimeters
- Antibacterial activity at 4 µg ([1]; listed as Polymyxin B sulfate): 95 square millimeters
- Antibacterial activity at 10 µg [1]: 133 square millimeters
- Antibacterial activity 4 µg [2]: 113 square millimeters
- Antibacterial activity 10 µg [2]: 154 square millimeters
- Antibacterial activity 4 µg [3]: 95 square millimeters
- Antibacterial activity 10 µg [3]: 133 square millimeters
- Antibacterial activity in the presence of rifampin concn (µg/ml) of 0 [4]: 79 square millimeters
- Antibacterial activity in the presence of rifampin concn (µg/ml) of 0.1 [4]: 95 square millimeters
- Antibacterial activity in the presence of rifampin concn (µg/ml) of 1.0 [4]: 104 square millimeters
- Sensitization factor ([5]; ratio of the MIC of the antibiotic in the absence of NAB 7061 to that in the presence of 4 µg/ml of NAB 7061, E. cloacae ATCC 23355): 4
- Sensitization factor ([6]; ratio of the MIC of the antibiotic in the absence of NAB 7061 to that in the presence of 4 µg/ml of NAB 7061, E. coli IH 3080): 2
- Sensitization factor ([7]; ratio of the MIC of the antibiotic in the absence of NAB 7061 to that in the presence of 4 µg/ml of NAB 7061, K. pneum. ATCC 13883): 1
- rise of blood urea nitrogen (BUN) over control or low dose group ([9]; rat, in vivo): 15%
- mortality ([9]; rats, 32 mg/kg per day intravenously, two weeks): 100%
